Results on 18 compounds are retold here after PubChem BioAssay (NCI).

Test in all cases: inhibition of tumour cell growth, NCI panel, 48 h
Assay [1] relates to COLO 205 colon.
In assay [2] the test system is SK-MEL-28 melanoma.
Assay [3] deals with ACHN renal.
Assay [4] deals with HCT-15 colon.
The test system of assay [5] is SNB-75 CNS.
Assay [6] relates to SF-295 CNS.
Assay [7] has as its system 786-0 renal.
In assay [8] the test system is SK-MEL-5 melanoma.
The test system of assay [9] is HL-60(TB) leukemia.
In assay [10] the test system is MOLT-4 leukemia.
The subject of assay [11] is UO-31 renal.
Assay [12] relates to A498 renal.

SMILES strings stand for the structures.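 All cell lines were grown in 96-well plates and treated with compound for 48 hours. The concentration for full growth arrest is given as TGI.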 Bounds are passed on as bounds.

With `COc1c(C)cc2c(C(C)C)c(O)c(O)c(C=O)c2c1O`, the TGI was 36.3 µM in assay [1]; 75.1 µM in [2]; 93 µM in assay [3]; above 100 µM in [4]; 90.2 µM in assay [5]; 86 µM in [6]. The TGI was above 100 µM in assay [7]; 33.1 µM in assay [8]; 58.3 µM in [9]; above 100 µM in assay [10]; above 100 µM in [11].

Consider `CCOC(=O)C(=O)C=P(c1ccccc1)(c1ccccc1)c1ccccc1`, for which the TGI in assay [1], in assay [2], in [3], in [4], in [12] and in assay [5] was above 100 µM each time. For the same compound, the TGI in [6], in [7], in [8], in [9], in assay [10] and in [11] was above 100 µM throughout.

With `N#CCc1c(-c2ccccc2)n(S(=O)(=O)c2ccccc2)c2ccccc12`, the TGI in [1] was above 100 µM; in [2] it was above 100 µM; in [3], above 100 µM; in [4], above 100 µM; in assay [5], 62 µM; in [6], above 100 µM. For the same compound, the TGI in assay [7], in assay [8], in [9], in assay [10] and in assay [11] was above 100 µM each time.

As for `N/N=C1\C(=O)N(Cc2ccccc2)C(=O)C1C(=O)NCc1ccccc1` (stereo not drawn), the TGI in assay [1], in assay [2], in [3], in [4], in assay [12] and in assay [6] was above 100 µM each time. For the same compound, the TGI in assay [7], in [8], in assay [9], in [10] and in [11] was above 100 µM throughout.

`O=C(/C=C\c1cccc2ccccc12)c1ccc(F)cc1`: the TGI in [1] is 35.3 µM; in [2], 26.4 µM; in assay [3], 30.8 µM; in assay [4], 31.8 µM; in [12] it was above 100 µM; in assay [5], 75.3 µM. In addition, the TGI in [6] turned out to be 41.1 µM; in assay [7] it was 32.1 µM; in assay [8], 33 µM; in [9], 53 µM; in [10] it was 74.2 µM; in assay [11], 32.4 µM.

`Cc1c[n+]2c3ccccc3c3ccccc3c2s1`: the TGI in assay [1] was 26.1 µM; in assay [2] it was 18 µM; in assay [3] it was above 100 µM; in [4], above 100 µM; in assay [12], above 100 µM; in assay [5] it was 12.1 µM. Besides, the TGI in assay [6] was 33.5 µM; in assay [7], above 100 µM; in [8], 17.9 µM; in assay [9], above 61.6 µM; in assay [10], 13.4 µM; in assay [11], 14.5 µM.

For the compound `O=C/C1=C/C2=Cc3ccccc3C=C(/C=C(/C=O)C1)C2`, the TGI in assay [1] is above 100 µM; in [2], above 100 µM; in assay [3], above 100 µM; in assay [4] it was above 100 µM; in [12], above 100 µM; in assay [5], 80 µM. Also, the TGI was above 100 µM in assay [6]; above 100 µM in assay [7]; above 100 µM in [8]; above 100 µM in assay [9]; 90.9 µM in assay [10]; above 100 µM in assay [11].

`CCOC(=O)Cn1c2ccccc2c(=O)c2cc(C)c(C)c(C#N)c21`: the TGI in assay [1] is above 100 µM; in assay [2], above 100 µM; in assay [3], above 100 µM; in [4] it was above 100 µM; in assay [5], 66.1 µM; in assay [6] it was above 100 µM. Moreover, the TGI in assay [7], in [9], in [10] and in [11] was above 100 µM throughout.

Take `Cc1cccc(-n2c(N)c(-c3nc4ccccc4[nH]3)sc2=S)c1`: the TGI was 51.8 µM in assay [1]; above 100 µM in [2]; 99 µM in [3]; 62.3 µM in assay [4]; above 100 µM in assay [12]; above 100 µM in assay [5]. Besides, the TGI in [6] amounted to 68.1 µM; in [7], 54.1 µM; in [8], 46.7 µM; in assay [9] it was 64 µM; in [10] it was 54.6 µM; in assay [11], 87.8 µM.

For the compound `N#CC(/C(CCC(=O)Nc1ccc(Cl)cc1)=N/NC(=O)c1cc2ccccc2cc1O)c1ccccc1` (stereo not drawn), the TGI in assay [1], in assay [2], in assay [3], in assay [5], in [6] and in assay [7] was above 100 µM throughout. Moreover, the TGI in [8] was 40.6 µM; in assay [9], 33 µM; in assay [10] it was 94.9 µM; in assay [11], above 100 µM.

With `CCOC(=O)C1SC(=Nc2ccc(OC)c(OC)c2)N=C1C` (stereo not drawn), the TGI is above 100 µM in assay [1]; above 100 µM in assay [2]; above 100 µM in assay [3]; above 100 µM in assay [4]; above 100 µM in assay [12]; 71.1 µM in [5]. Moreover, the TGI in [6] is above 100 µM; in assay [7], 90.2 µM; in assay [8] it was 37.2 µM; in [9], 49.1 µM; in assay [11] it was 86.7 µM.

With `COc1ccc(C2=NN(c3ccccc3)C[N+](c3ccc(C)cc3)=N2)cc1`, the TGI in assay [1], in [2], in assay [3], in [4], in assay [12] and in assay [6] was above 100 µM in each case. The TGI in assay [7] is above 100 µM; in assay [8], above 10 µM; in assay [9], above 100 µM; in [10], 88.5 µM; in assay [11], above 100 µM.

Consider `N#Cc1ccc(Cc2ccccn2)cc1Cl`, for which the TGI in [1], in [2], in assay [3], in assay [6], in [7] and in assay [8] was above 100 µM in each case. For the same compound, the TGI in assay [9], in assay [10] and in assay [11] was above 100 µM each time.

With `CC(=O)OC(CC1(C)C(C)CCC23COC(=O)C2=CCCC31)c1ccoc1` (stereo not drawn), the TGI in assay [1] was above 100 µM; in assay [2], 33 µM; in [3], above 100 µM; in [4], 56.2 µM; in assay [12], above 100 µM; in [5], 78.5 µM. The TGI in assay [6] was above 100 µM; in assay [7] it was 32.2 µM; in [8], 42.1 µM; in assay [10], 90.3 µM; in assay [11], 60 µM.

As for `CNC(=O)NCNC(=O)NC`, the TGI in assay [1], in assay [2], in assay [4], in [12], in assay [5] and in assay [6] was above 100 µM throughout. The TGI in assay [7], in assay [8], in [9] and in assay [10] was above 100 µM each time.

On to `O=C(Nc1ccc(Cl)cc1C(F)(F)F)C(=O)C1CCCS1(=O)=O` (stereo not drawn), for which the TGI in assay [1], in assay [2], in [3], in assay [4], in assay [12] and in assay [5] was above 100 µM throughout. The TGI in assay [6], in assay [7], in assay [8], in assay [9] and in [10] was above 100 µM each time.

As for `CC(CCC[C@H](C)CO)[C@H]1[C@@H](O)C(O)C2[C@@H]3C[C@@H](O)C4(O)C[C@@H](O)CC[C@]4(C)C3CC[C@@]21C` (stereo partly drawn), the TGI in assay [1], in assay [2], in assay [3], in assay [4], in [5] and in assay [6] was above 100 µM throughout. Also, the TGI in assay [7], in assay [8], in assay [9], in assay [10] and in assay [11] was above 100 µM in each case.

Turning to `COc1cc2c(c(OC)c1OC)-c1ccc(SC)c(=O)cc1C(CC(=O)Oc1cccc([N+](=O)[O-])c1)C2` (stereo not drawn), the TGI is 2.24 µM in [1]; above 100 µM in assay [2]; above 100 µM in [3]; 2.24 µM in assay [4]; 0.823 µM in assay [12]; 0.71 µM in assay [5]. Besides, the TGI in assay [6], in assay [7], in assay [8], in assay [10] and in [11] was above 100 µM throughout.
